Test results reported in patent US20040156869A1, “2-substituted quinazolin-4-ylamine analogues” (Neurogen Corporation, priority 2002, published 2004).

Target: human capsaicin receptor (VR1) (Homo sapiens, UniProt Q8NER1)
Test: Capsaicin receptor binding assay ([3H]RTX competition, VR1-transfected HEK293 membranes)

Chain of human capsaicin receptor (VR1) (Q8NER1 whole entry): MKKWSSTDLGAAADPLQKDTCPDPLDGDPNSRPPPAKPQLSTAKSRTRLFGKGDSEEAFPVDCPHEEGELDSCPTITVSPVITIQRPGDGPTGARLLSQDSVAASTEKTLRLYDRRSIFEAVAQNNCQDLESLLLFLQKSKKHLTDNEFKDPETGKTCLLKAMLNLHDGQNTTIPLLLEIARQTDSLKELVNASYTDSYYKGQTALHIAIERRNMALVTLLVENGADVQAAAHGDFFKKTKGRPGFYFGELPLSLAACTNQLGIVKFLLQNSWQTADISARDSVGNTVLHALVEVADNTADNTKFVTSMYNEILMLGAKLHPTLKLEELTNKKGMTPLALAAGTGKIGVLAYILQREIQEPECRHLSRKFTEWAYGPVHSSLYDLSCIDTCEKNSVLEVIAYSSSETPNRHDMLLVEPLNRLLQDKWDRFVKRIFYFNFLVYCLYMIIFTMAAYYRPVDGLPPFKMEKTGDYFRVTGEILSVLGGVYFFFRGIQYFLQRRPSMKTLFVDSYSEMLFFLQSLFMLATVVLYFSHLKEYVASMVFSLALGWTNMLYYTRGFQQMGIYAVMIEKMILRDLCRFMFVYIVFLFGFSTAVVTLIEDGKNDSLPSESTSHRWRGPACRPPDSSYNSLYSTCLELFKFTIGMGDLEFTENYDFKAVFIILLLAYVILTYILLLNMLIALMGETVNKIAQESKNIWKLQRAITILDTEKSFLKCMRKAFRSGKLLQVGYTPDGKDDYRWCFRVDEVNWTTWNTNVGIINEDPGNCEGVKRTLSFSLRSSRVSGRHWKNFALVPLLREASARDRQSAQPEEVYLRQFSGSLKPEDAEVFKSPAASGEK

Ki [nM] | Structure (SMILES)
< 1000 | C[C@@H]1CN(Cc2nc(Nc3ccc(S(=O)(=O)C(F)(F)F)cc3)c3ccc(-c4ncccc4C(F)(F)F)cc3n2)C[C@H](C)O1 [Compound 582, [2-(2,6-Dimethyl-morpholin-4-ylmethyl)-7-(3-trifluoromethyl-pyridin-2-yl)-quinazolin-4-yl]-(4-trifluoromethanesulfonyl-phenyl)-amine (cis)]
< 1000 | OC1CCCN(CCc2nc(Nc3ccc(C(F)(F)F)cc3)c3ccc(-c4ncccc4C(F)(F)F)cc3n2)C1 (stereo not drawn) [Compound 588, [2-(3-Hydroxy-piperidin-1-ylethyl)-7-(3-trifluoromethyl-pyridin-2-yl)-quinazolin-4-yl]-(4-trifluoromethyl-phenyl)-amine]
< 1000 | COCc1nc(Nc2ccc(S(=O)(=O)C(F)(F)F)cc2)c2ccc(-c3nccnc3Cl)nc2n1 [Compound 239, [7-(3-Chloro-pyrazin-2-yl)-2-methoxymethyl-pyrido[2,3-d]pyrimidin-4-yl]-(4-trifluoromethanesulfonyl-phenyl)-amine]
< 1000 | COCc1nc(Nc2ccc(Cl)c(C)c2)c2ccc(-c3ncccc3C(F)(F)F)nc2n1 [Compound 293, (4-Chloro-3-methyl-phenyl)-[2-methoxymethyl-7-(3-trifluoromethyl-pyridin-2-yl)-pyrido[2,3-d]pyrimidin-4-yl]-amine]
< 1000 | CC(C)(C)c1ccc(Nc2nc(COCCCN3CCOCC3)nc3cc(-c4ncccc4C(F)(F)F)ccc23)cc1 [Compound 124, (4-tert-Butyl-phenyl)-[2-(3-morpholin-4-yl-propoxymethyl)-7-(3-trifluoromethyl-pyridin-2-yl)-quinazolin-4-yl]-amine]
< 1000 | FC(F)(F)c1ccc(Nc2nc(CN3CCC4(CC3)OCCO4)nc3cc(-c4ncccc4C(F)(F)F)ccc23)cn1 [Compound 364, [2-(1,4-Dioxa-8-aza-spiro[4.5]dec-8-ylmethyl)-7-(3-trifluoromethyl-pyridin-2-yl)-quinazolin-4-yl]-(6-trifluoromethyl-pyridin-3-yl)-amine]
< 1000 | CCCN(CCC)Cc1nc(Nc2ccc(C(F)(F)F)cc2)c2ccc(-c3ncccc3C)cc2n1 [Compound 726, [2-Dipropylaminomethyl-7-(3-methyl-pyridin-2-yl)-quinazolin-4-yl]-(4-trifluoromethyl-phenyl)-amine]
< 1000 | O=S(=O)(c1ccc(Nc2nc(COC3CCCC3)nc3cc(-c4ncccc4C(F)(F)F)ccc23)cc1)N1CCOCC1 [Compound 143, [2-Cyclopentyloxymethyl-7-(3-trifluoromethyl-pyridin-2-yl)-quinazolin-4-yl]-[4-(morpholine-4-sulfonyl)-phenyl]-amine]
< 1000 | CC(C)(C)c1ccc(Nc2nc(CO)nc3cc(-c4ncccc4Cl)ccc23)cc1 [Compound 157, [4-(4-tert-Butyl-phenylamino)-7-(3-chloro-pyridin-2-yl)-quinazolin-2-yl]-methanol]
< 1000 | O=C(NCCCN1CCOCC1)c1nc(Nc2ccc(C(F)(F)F)cc2)c2ccc(-c3ncccc3C(F)(F)F)nc2n1 [Compound 443, 4-(4-Trifluoromethyl-phenylamino)-7-(3-trifluoromethyl-pyridin-2-yl)-pyrido[2,3-d]pyrimidine-2-carboxylic acid (3-morpholin-4-yl-propyl)-amide]
< 1000 | FC(F)(F)c1ccc(Nc2nc(COCc3ccccc3)nc3cc(-c4ncccc4C(F)(F)F)ccc23)cn1 [Compound 25, [2-Benzyloxymethyl-7-(3-trifluoromethyl-pyridin-2-yl)-quinazolin-4-yl]-(6-trifluoromethyl-pyridin-3-yl)-amine]
< 1000 | O=C(c1nc(Nc2ccc(C(F)(F)F)cc2)c2ccc(-c3ncccc3C(F)(F)F)nc2n1)N1CCSCC1 [Compound 463, Thiomorpholin-4-yl-[4-(4-trifluoromethyl-phenylamino)-7-(3-trifluoromethyl-pyridin-2-yl)-pyrido[2,3-d]pyrimidin-2-yl]-methanone]
